Data: paper PMC11125181, “New Inhibitors of Bcr-Abl Based on 2,6,9-Trisubstituted Purine Scaffold Elicit Cytotoxicity in Chronic Myeloid Leukemia-Derived Cell Lines Sensitive and Resistant to TKIs” (Pharmaceutics, 2024)
Read-outs that look alike come from different tables or passages of the source.

Assays:
KCL22 B8 (T315I, 100%) = assay: Cytotoxicity assay (resazurin) on KCL22 subclone B8; format: cell-based; settings: Homo sapiens, KCL-22, read-out: GI50 KCL22 B8 T315I (100%), 72 h
Protocol: (§1) Human cell lines KCL22 and BV173 were obtained from the German Collection of Microorganisms and Cell Cultures, K562 and HEK-293T from the European Collection of Authenticated Cell Cultures. KBM5 cell line was kindly gifted by Vladimír Divoký. Development of KCL22 subclones B8 (T315I, 100%), F4 (E255K, 100%), and B10 (Y253H, 50%) was reported previously. All cell lines were cultivated in humidified incubator at 37 °C and in 5% CO2 according to the provider’s instructions in appropriate media supplemented with 10% fetal bovine serum, penicillin (100 IU/mL), streptomycin (100 µg/mL), and glutamine (4 mM).
(§2) Cytotoxicity was determined using resazurin, an indicator dye to measure oxidation-reduction reactions occurring in the mitochondria of live cells. The cells were seeded into 96-well plates and treated with compounds for 72 h (six different doses of each, in triplicate). After treatment, resazurin (Merck, Darmstadt, Germany) solution was added for 4 h, and the fluorescence of formed resorufin corresponding to live cell quantity was measured at 544 nm/590 nm (excitation/emission) using a Fluoroskan Ascent microplate reader (Labsystems, Vantaa, Finland).

[1] = system: STAT5 phosphorylation, PARP cleavage in KCL22 B10; assay: Immunoblotting of Bcr-Abl pathway proteins, KCL22 B10; format: cell-based, human; settings: immunoblot, 24 h treatment
Protocol: (§3) Cell lysates were separated on SDS–polyacrylamide gels and electroblotted onto nitrocellulose membranes. After blocking, overnight incubation with specific primary antibodies was performed, followed by wash and incubation with peroxidase-conjugated secondary antibodies (Cell Signalling). Peroxidase activity was detected with SuperSignal West Pico reagents (Thermo Scientific, Waltham, MA, USA) using a CCD camera LAS-4000 (Fujifilm, Tokyo, Japan). The following specific primary antibodies were used: Cell Signalling: anti-STAT5 (#94205), anti-p-STAT5 Y694 (#9351), anti-Crkl (#3182), anti-p-Crkl Y207 (#3181), anti-cyclin A (#4656), anti-p-Bcr Y177 (#3901), and anti-PARP (#9532); Santa Cruz Biotechnology: anti-β-actin (#sc-47778).

[2] = system: p-Crkl, p-STAT5, PARP, cyclin A in WT KCL22 cell line; assay: Immunoblotting of Bcr-Abl pathway proteins, WT KCL22; format: cell-based, human; settings: immunoblot, 24 h treatment
Protocol: as §3

KCL22 WT cells = assay: Cell cycle flow cytometry, KCL22 WT; format: cell-based, human; settings: 24 h treatment, increasing concentration up to 5 µM
Protocol: (§4) The cell lines were seeded into 96-well plates and then treated with compounds for 24 h. After treatment, the cells were directly stained by adding 5 × staining solution (17 mM trisodium citrate dihydrate, 0.5% IGEPAL® CA-630, 7.5 mM spermine tetrahydrochloride, 2.5 mM Tris; pH 7.6 containing 50 μg/mL propidium iodide). DNA content was measured by flow cytometry using a 488 nm laser (BD FACS Verse with software BD FACSuite™, version 1.0.6.). Cell cycle distribution was analyzed using ModFit LT 5.0.9 (Verity Software House, Augusta, ME, USA).

[3] = system: STAT5 phosphorylation, PARP cleavage in KCL22 F4; assay: Immunoblotting of Bcr-Abl pathway proteins, KCL22 F4; format: cell-based, human; settings: immunoblot, 24 h treatment
Protocol: as §3

KCL22 F4 (E255K, 100%) = assay: Cytotoxicity assay (resazurin) on KCL22 subclone F4; format: cell-based; settings: Homo sapiens, KCL-22, read-out: GI50 KCL22 F4 E255K (100%), 72 h
Protocol: as §1, §2

recombinant Abl1 kinase [4] = molecular target: T1, recombinant Abl1 kinase (Homo sapiens, UniProt P00519); assay: Recombinant Abl1 kinase inhibition assay ([γ-33P]ATP, peptide substrate); format: biochemical
T1 construct: made in house
T1 sequence (P00519 whole entry): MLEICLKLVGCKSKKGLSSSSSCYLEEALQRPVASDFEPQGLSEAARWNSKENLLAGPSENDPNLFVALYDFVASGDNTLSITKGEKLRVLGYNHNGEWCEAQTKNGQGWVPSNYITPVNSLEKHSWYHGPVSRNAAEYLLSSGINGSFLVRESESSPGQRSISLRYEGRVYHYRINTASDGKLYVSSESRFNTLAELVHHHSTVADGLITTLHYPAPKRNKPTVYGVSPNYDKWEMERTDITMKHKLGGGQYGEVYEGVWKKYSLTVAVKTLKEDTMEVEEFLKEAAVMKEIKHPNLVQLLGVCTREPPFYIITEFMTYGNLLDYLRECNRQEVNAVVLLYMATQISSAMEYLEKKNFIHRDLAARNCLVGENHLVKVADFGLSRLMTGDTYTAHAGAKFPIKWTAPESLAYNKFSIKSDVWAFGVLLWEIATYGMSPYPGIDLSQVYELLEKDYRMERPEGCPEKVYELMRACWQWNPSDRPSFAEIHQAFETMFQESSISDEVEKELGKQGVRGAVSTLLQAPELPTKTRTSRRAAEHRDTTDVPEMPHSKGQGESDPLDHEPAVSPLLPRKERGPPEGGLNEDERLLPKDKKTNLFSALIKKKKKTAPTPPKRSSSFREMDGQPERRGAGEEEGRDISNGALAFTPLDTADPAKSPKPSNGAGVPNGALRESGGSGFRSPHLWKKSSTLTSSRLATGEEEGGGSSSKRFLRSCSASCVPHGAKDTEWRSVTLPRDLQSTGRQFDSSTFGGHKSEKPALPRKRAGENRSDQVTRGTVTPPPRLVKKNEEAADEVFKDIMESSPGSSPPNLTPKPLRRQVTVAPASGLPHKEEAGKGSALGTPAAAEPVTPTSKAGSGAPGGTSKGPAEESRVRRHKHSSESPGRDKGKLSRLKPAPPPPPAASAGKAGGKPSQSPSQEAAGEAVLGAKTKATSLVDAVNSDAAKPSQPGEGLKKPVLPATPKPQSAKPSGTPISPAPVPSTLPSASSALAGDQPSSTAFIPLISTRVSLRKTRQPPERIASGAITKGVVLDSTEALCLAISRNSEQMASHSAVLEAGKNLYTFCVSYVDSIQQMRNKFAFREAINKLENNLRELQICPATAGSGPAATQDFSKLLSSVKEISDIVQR
Protocol: The reactions were stopped by adding 5 µL of 3% aq. H3PO4. […] H3PO4, and air-dried.

[5] = system: KCL22 B8 cell line containing Bcr-Abl^T315I; assay: Cell cycle flow cytometry, KCL22 B8; format: cell-based, human; settings: 24 h treatment
Protocol: The cell lines were seeded into 96-well plates and then treated with compounds for 24 h. After treatment, the cells were directly stained by adding 5 × staining solution (17 mM trisodium citrate dihydrate, 0.5% IGEPAL® CA-630, 7.5 mM spermine tetrahydrochloride, 2.5 mM Tris; pH 7.6 containing 50 μg/mL propidium iodide). […] Cell cycle distribution was analyzed using ModFit LT 5.0.9 (Verity Software House, Augusta, ME, USA).

K562 = assay: Cytotoxicity assay (resazurin) on K562; format: cell-based; settings: Homo sapiens, 72 h
Protocol: as §1, §2

[6] = system: KCL22 cells containing Bcr-Abl^WT; assay: Cytotoxicity assay (resazurin) on KCL22 WT; format: cell-based, human; settings: Homo sapiens, KCL-22, 72 h, read-out: GI50 KCL22 WT
[7] = system: KBM5, BV173, K562 (Bcr-Abl rearranged cell lines); assay: Cytotoxicity across cell lines with Bcr-Abl rearrangement; format: cell-based; settings: Homo sapiens, read-out: GI50 in Bcr-Abl rearranged cell lines (span over cell lines)
Protocol: as §1, §2

KCL22 B10 (Y253H) = assay: Cell cycle flow cytometry, KCL22 B10; format: cell-based, human; settings: 24 h treatment
Protocol: as §4

BV173 = assay: Cytotoxicity assay (resazurin) on BV173; format: cell-based; settings: Homo sapiens, BV-173, 72 h
Protocol: as §1, §2

HEK-293T = assay: Cytotoxicity assay (resazurin) on non-neoplastic HEK-293T; format: cell-based; settings: Homo sapiens, 72 h, non-neoplastic cells
Protocol: as §1, §2

KCL22 B10 (Y253H, 50%) = assay: Cytotoxicity assay (resazurin) on KCL22 subclone B10; format: cell-based; settings: Homo sapiens, KCL-22, read-out: GI50 KCL22 B10 Y253H (50%), 72 h
Protocol: as §1, §2

KCL22 F4 (E255K) = assay: Cell cycle flow cytometry, KCL22 F4; format: cell-based, human; settings: 24 h treatment
Protocol: as §4

KBM5 = assay: Cytotoxicity assay (resazurin) on KBM5; format: cell-based; settings: Homo sapiens, KBM5; 72 h, resazurin assay; read-out: GI50 KBM5
[8] = system: KCL22 models (WT, B8, F4, B10); assay: Cytotoxicity across all KCL22 models; format: cell-based; settings: Homo sapiens, KCL-22, read-out: GI50 in all KCL22 models (span over models)
Protocol: as §1, §2

recombinant Abl1 kinase [9] = molecular target: T1, recombinant Abl1 kinase; settings: Figure 2A, compounds with longer N-9 substituents; read-out: IC50 Bcr-Abl; cited from earlier work
[10] = from the IC50 of Table S1, read-out: pIC50 (Table S1) (converted)
[11] = recombinant Abl1, 1 µM ATP, at least three independent experiments, read-out: IC50 Abl

Compound	GI50 (KCL22 B8 (T315I, 100%))	GI50 (KCL22 F4 (E255K, 100%))	IC50 (recombinant Abl1 kinase [4]; [10])	IC50 (recombinant Abl1 kinase [4]; [11])	Effect on cell cycle distribution, KCL22 B8 (T315I) [5]	GI50 (K562)	GI50 [6]	GI50 (BV173)	GI50 (HEK-293T)	GI50 (KCL22 B10 (Y253H, 50%))	GI50 (KBM5)	other results
OCCN1CCN(c2ccc(Nc3nc(Nc4cccc(F)c4)c4ncn(CC5CC5)c4n3)cc2)CC1 [Compound 11b, 2-(4-(4-((9-(Cyclopropylmethyl)-6-((3-fluorophenyl)amino)-9H-purin-2-yl)amino)phenyl)piperazin-1-yl)ethan-1-ol]	11.5 ± 1.1 µM	4.1 ± 0.1 µM	0.014 µM	0.015 ± 0.01 µM	resistant	0.7 ± 0.2 µM	2 ± 0.4 µM	1.5 ± 0.2 µM	5.5 ± 0.6 µM	2.6 ± 0.2 µM	1.3 ± 0.1 µM	Effect on Bcr-Abl downstream proteins, KCL22 B10 [1]: significantly pronounced in both mutant cell lines; Effect on Bcr-Abl downstream proteins, WT KCL22 [2]: downregulated the levels of p-Crkl and p-STAT5; Effect on cell cycle distribution, KCL22 WT (KCL22 WT cells): significant block of WT cells in G1 phase; Effect on Bcr-Abl downstream proteins, KCL22 F4 [3]: significantly pronounced in both mutant cell lines; GI50 [7]: 0.7 to 1.3 µM; Effect on cell cycle distribution, KCL22 B10 (KCL22 B10 (Y253H)): arrested F4 and B10 mutant models in G1 phase; Effect on cell cycle distribution, KCL22 F4 (KCL22 F4 (E255K)): arrested F4 and B10 mutant models in G1 phase
CC(C)CCn1cnc2c(Nc3cccc(F)c3)nc(Nc3ccc(N4CCN(CCO)CC4)cc3)nc21 [Compound 11e, 2-(4-(4-((6-((3-Fluorophenyl)amino)-9-isopentyl-9H-purin-2-yl)amino)phenyl)piperazin-1-yl)ethan-1-ol]	6.9 ± 0.8 µM	5.6 ± 0.5 µM	0.13 µM	0.131 ± 0.071 µM	resistant	4.3 ± 0.2 µM	6.1 ± 0.1 µM	3.8 ± 0.1 µM	4.7 ± 0.7 µM	6.9 ± 0.1 µM	5 ± 0.1 µM	IC50 (recombinant Abl1 kinase [4]; as listed in Table S1, Bcr-Abl WT, read-out: IC50 (Table S1)): 0.13 µM; GI50 [8]: 5.6 to 6.9 µM
CC(C)CCn1cnc2c(Nc3ccc(F)c(F)c3)nc(Nc3ccc(N4CCN(C)CC4)cc3)nc21 [IV]	–	–	–	–	–	–	–	–	–	–	–	IC50 (recombinant Abl1 kinase [9]): 2.28 µM
